Assay type in all cases: functional
The target of one experiment is Integrin alpha-V/beta-3 (Homo sapiens, UniProt P05106+P06756). Put plainly: Antagonistic activity against vitronectin receptor.
Experiment [1] deals with Integrin alpha-IIb/beta-3 (Homo sapiens, UniProt P05106+P08514). Put plainly: Antagonistic activity against fibrinogen receptor.
Experiment [2] is described as follows: Antagonistic activity against Vitronectin receptor protein ( alpha v beta 3 ) by ELISA assay.

Sequence of Integrin alpha-IIb/beta-3 (P05106 27-788 limits assumed): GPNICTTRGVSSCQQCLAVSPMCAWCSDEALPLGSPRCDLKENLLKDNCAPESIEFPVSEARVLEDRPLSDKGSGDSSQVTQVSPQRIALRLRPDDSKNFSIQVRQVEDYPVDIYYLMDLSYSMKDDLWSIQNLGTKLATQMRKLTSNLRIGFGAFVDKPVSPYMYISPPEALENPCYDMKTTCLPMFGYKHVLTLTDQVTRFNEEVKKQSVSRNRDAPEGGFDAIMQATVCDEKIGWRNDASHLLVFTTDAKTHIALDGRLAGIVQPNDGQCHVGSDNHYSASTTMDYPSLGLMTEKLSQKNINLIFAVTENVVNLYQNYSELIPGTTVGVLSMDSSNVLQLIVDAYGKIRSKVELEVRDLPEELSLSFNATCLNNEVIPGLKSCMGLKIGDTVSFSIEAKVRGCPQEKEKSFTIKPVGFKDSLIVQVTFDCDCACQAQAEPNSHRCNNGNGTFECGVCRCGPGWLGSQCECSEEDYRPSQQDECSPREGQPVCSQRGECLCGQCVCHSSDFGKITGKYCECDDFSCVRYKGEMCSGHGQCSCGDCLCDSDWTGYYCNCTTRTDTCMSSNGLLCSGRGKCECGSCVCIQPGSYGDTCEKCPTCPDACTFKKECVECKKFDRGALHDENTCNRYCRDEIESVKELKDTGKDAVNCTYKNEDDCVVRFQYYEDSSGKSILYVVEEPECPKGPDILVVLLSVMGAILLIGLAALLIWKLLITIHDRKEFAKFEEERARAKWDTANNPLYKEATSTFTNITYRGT
Sequence of Integrin alpha-IIb/beta-3 (P08514 32-887 limits assumed): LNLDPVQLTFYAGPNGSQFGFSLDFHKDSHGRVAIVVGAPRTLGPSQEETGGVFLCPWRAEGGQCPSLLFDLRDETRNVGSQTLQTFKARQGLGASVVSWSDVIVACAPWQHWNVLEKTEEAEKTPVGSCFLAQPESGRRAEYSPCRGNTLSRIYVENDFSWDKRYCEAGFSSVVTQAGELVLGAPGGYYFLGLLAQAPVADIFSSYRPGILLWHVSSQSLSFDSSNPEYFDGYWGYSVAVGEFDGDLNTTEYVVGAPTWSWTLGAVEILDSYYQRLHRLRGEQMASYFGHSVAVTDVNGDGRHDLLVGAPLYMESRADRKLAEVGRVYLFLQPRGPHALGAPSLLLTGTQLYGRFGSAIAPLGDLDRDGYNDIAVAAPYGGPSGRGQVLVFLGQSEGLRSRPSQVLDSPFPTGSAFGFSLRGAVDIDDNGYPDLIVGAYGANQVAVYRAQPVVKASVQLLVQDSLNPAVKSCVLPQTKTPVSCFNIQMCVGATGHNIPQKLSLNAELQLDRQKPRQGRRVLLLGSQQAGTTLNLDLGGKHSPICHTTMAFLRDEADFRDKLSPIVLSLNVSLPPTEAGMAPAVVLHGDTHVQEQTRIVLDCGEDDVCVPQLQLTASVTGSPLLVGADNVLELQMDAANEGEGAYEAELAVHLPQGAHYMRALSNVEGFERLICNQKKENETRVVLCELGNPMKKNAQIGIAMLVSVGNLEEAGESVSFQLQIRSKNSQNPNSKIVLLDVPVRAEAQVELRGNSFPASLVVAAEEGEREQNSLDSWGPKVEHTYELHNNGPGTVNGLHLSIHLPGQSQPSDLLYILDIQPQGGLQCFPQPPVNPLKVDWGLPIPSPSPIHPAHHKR
Sequence of Integrin alpha-IIb/beta-3 (P08514 891-1039 limits assumed): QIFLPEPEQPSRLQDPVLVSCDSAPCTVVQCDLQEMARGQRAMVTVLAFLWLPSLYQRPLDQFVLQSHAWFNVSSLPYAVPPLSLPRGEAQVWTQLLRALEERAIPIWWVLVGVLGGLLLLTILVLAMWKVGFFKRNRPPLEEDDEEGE
Sequence of Integrin alpha-V/beta-3 (P05106 27-788 limits assumed): as the sequence (P05106 27-788 limits assumed) above
Sequence of Integrin alpha-V/beta-3 (P06756 31-889 limits assumed): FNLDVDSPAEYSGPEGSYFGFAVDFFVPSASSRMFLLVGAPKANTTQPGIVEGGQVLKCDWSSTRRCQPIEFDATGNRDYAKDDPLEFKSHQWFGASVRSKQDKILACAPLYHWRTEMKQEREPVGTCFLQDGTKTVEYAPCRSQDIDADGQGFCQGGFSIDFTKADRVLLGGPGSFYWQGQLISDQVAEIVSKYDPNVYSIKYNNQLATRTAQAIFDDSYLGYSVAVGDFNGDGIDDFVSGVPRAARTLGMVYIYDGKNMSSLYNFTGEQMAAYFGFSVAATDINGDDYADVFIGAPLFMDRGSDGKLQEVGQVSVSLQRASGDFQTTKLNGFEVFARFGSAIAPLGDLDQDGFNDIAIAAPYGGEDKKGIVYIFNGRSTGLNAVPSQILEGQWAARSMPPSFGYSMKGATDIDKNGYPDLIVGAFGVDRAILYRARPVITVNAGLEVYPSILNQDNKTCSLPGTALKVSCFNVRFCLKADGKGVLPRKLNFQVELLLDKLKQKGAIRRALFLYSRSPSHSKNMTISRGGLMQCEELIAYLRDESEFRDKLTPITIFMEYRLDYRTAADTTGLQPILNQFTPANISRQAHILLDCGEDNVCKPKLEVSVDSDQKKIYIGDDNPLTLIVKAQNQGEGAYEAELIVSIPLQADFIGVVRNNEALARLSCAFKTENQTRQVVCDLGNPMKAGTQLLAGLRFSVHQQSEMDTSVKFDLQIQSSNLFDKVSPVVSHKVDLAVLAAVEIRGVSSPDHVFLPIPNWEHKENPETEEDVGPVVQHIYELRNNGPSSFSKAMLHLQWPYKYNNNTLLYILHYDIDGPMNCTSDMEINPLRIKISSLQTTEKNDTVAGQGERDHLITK
Sequence of Integrin alpha-V/beta-3 (P06756 891-1048 limits assumed): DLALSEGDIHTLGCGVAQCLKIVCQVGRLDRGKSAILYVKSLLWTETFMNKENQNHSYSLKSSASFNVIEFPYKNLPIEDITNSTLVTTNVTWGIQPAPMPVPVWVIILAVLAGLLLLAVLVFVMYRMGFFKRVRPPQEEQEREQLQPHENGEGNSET

Regarding `N=C(N)NCC1CC(CCC(=O)NC[C@H](NC(=O)OCc2ccccc2)C(=O)O)=NO1` (stereo partly specified), the figures for the IC50 (on Integrin alpha-V/beta-3; in experiment [1]) were 310 nM and above 100000 nM, respectively.
In the case of `N=C(N)NCCCCC1=NOC(CC(=O)NC[C@H](NC(=O)OCc2ccccc2)C(=O)O)C1` (stereo partly specified), the IC50 against Integrin alpha-V/beta-3 was found to be 180 nM; in experiment [1], 800 nM.
`N=C(N)NCCCCC1CC(C(=O)NC[C@H](NC(=O)OCc2ccccc2)C(=O)O)=NO1` (stereo partly specified) displayed an IC50 against Integrin alpha-V/beta-3 of 23 nM.
Take `N=C(N)NCCCC1=NOC(C(=O)NC[C@H](NC(=O)OCc2ccccc2)C(=O)O)C1` (stereo partly specified): the values for the IC50 (against Integrin alpha-V/beta-3; in experiment [1]) were 110 nM and above 100000 nM, respectively.
Turning to `CN(C)c1cccc2c1ccc[n+]2S(=O)(=O)N[C@@H](CNC(=O)C1=NOC(CCCCN=C(N)N)C1)C(=O)[O-]` (stereo partly specified), the IC50 at Integrin alpha-V/beta-3 worked out at 7 nM; in experiment [1], 7900 nM.
The like results for `N=C(N)NCCCCC1CC(C(=O)NC[C@H](NS(=O)(=O)c2ccc(Cl)cc2)C(=O)O)=NO1` (stereo partly specified) were, in that order, 12 nM and 2600 nM.
On the same counts, the results for `N=C(N)NCCCCC1CC(C(=O)NC[C@H](NS(=O)(=O)c2cc(Cl)sc2Cl)C(=O)O)=NO1` (stereo partly specified) are 24 nM and 1900 nM.
Consider `N=C(N)NCCCCC1=NOC(C(=O)NC[C@H](NC(=O)OCc2ccccc2)C(=O)O)C1` (stereo partly specified), for which the IC50 was determined as 81 nM in experiment [2] and 55000 nM in experiment [1].
For the compound `N=C(N)NCCC1CC(C(=O)NC[C@H](NC(=O)OCc2ccccc2)C(=O)O)=NO1` (stereo partly specified), the IC50 against Integrin alpha-V/beta-3 was determined as 66 nM.
With `Cc1noc(C)c1S(=O)(=O)N[C@@H](CNC(=O)C1=NOC(CCCCN=C(N)N)C1)C(=O)O` (stereo partly specified), the figures for the IC50 (against Integrin alpha-V/beta-3; in experiment [1]) were 14 nM and 850 nM, respectively.
The like results for `COc1ccc(S(=O)(=O)N[C@@H](CNC(=O)C2=NOC(CCCCN=C(N)N)C2)C(=O)O)cc1` (stereo partly specified) were, in that order, 12 nM and 460 nM.
The like results for `N=C(N)NCCCC1CC(C(=O)NC[C@H](NC(=O)OCc2ccccc2)C(=O)O)=NO1` (stereo partly specified) were, in that order, 140 nM and 53000 nM.
For the compound `N=C(N)NCCCCCC1=NOC(C(=O)NC[C@H](NC(=O)OCc2ccccc2)C(=O)O)C1` (stereo partly specified), the IC50 at Integrin alpha-V/beta-3 was 710 nM; in experiment [1], 13000 nM.
The like results for `N=C(N)NCCCCC1=NOC(CCC(=O)NC[C@H](NC(=O)OCc2ccccc2)C(=O)O)C1` (stereo partly specified) were, in that order, 300 nM and 3600 nM.
On the same counts, the results for `N=C(N)NCCCCC1CC(C(=O)NC[C@H](NS(=O)(=O)c2ccc(-c3ccccn3)s2)C(=O)O)=NO1` (stereo partly specified) are 8 nM and 690 nM.
Regarding `N=C(N)NCCCC1=NOC(CCC(=O)NC[C@H](NC(=O)OCc2ccccc2)C(=O)O)C1` (stereo partly specified), the IC50 on Integrin alpha-V/beta-3 was determined as 100 nM.
Regarding `Cc1cn(C)[n+](Cl)c1S(=O)(=O)N[C@@H](CNC(=O)C1=NOC(CCCCN=C(N)N)C1)C(=O)[O-]` (stereo partly specified), the IC50 against Integrin alpha-V/beta-3 was determined as 2 nM; in experiment [1], 220 nM.
The like results for `CC(C)(C)c1ccc(S(=O)(=O)N[C@@H](CNC(=O)C2=NOC(CCCCNC(=N)N)C2)C(=O)O)cc1` (stereo partly specified) were, in that order, 36 nM and 47000 nM.
Consider `Cc1cc(C)c(S(=O)(=O)N[C@@H](CNC(=O)C2=NOC(CCCCN=C(N)N)C2)C(=O)O)c(C)c1` (stereo partly specified), for which the IC50 was determined as 0.7 nM on Integrin alpha-V/beta-3 and 340 nM in experiment [1].
On the same counts, the results for `N=C(N)NCCC1CC(CCC(=O)NC[C@H](NC(=O)OCc2ccccc2)C(=O)O)=NO1` (stereo partly specified) are 87 nM and 17000 nM.
As for `N=C(N)NCCCCC1CC(C(=O)NC[C@H](NS(=O)(=O)c2ccc(F)cc2)C(=O)O)=NO1` (stereo partly specified), the IC50 against Integrin alpha-V/beta-3 was found to be 15 nM; in experiment [1] it was 1300 nM.
On the same counts, the results for `N=C(N)NCCCCC1CC(C(=O)NC[C@H](NS(=O)(=O)c2ccc([N+](=O)[O-])cc2)C(=O)O)=NO1` (stereo partly specified) are 140 nM and 43000 nM.
For `N=C(N)NCCC1=NOC(CC(=O)NC[C@H](NC(=O)OCc2ccccc2)C(=O)O)C1` (stereo partly specified), the concentration for half-maximal inhibition (IC50) amounted to 900 nM at Integrin alpha-V/beta-3 and 12000 nM in experiment [1].
On the same counts, the results for `N=C(N)NCCCC1=NOC(CC(=O)NC[C@H](NC(=O)OCc2ccccc2)C(=O)O)C1` (stereo partly specified) are 72 nM and 12000 nM.
On the same counts, the results for `N=C(N)NCCCCC1CC(C(=O)NC[C@H](NS(=O)(=O)c2cccc3ccccc23)C(=O)O)=NO1` (stereo partly specified) are 16 nM and 3500 nM.
For `Cn1ccc(S(=O)(=O)N[C@@H](CNC(=O)C2=NOC(CCCCN=C(N)N)C2)C(=O)O)n1` (stereo partly specified), the values for the IC50 (against Integrin alpha-V/beta-3; in experiment [1]) were 96 nM and 3600 nM, respectively.
With `N=C(N)NCCCCCC1=NOC(CC(=O)NC[C@H](NC(=O)OCc2ccccc2)C(=O)O)C1` (stereo partly specified), the IC50 worked out at 470 nM at Integrin alpha-V/beta-3 and 1500 nM in experiment [1].
On the same counts, the results for `N=C(N)NCCC1=NOC(C(=O)NC[C@H](NC(=O)OCc2ccccc2)C(=O)O)C1` (stereo partly specified) are 2600 nM and above 100000 nM.
The like results for `N=C(N)NCCCCC1CC(C(=O)NC[C@H](NS(=O)(=O)c2cccs2)C(=O)O)=NO1` (stereo partly specified) were, in that order, 23 nM and 360 nM.
The like results for `N=C(N)NCCCCC1CC(C(=O)NC[C@H](NS(=O)(=O)c2ccccc2)C(=O)O)=NO1` (stereo partly specified) were, in that order, 11 nM and 780 nM.
Take `N=C(N)NCCC1=NOC(CCC(=O)NC[C@H](NC(=O)OCc2ccccc2)C(=O)O)C1` (stereo partly specified): the IC50 against Integrin alpha-V/beta-3 is 480 nM; in experiment [1] it was 23000 nM.
On the same counts, the results for `N=C(N)NCCCCC1CC(C(=O)NC[C@H](NS(=O)(=O)c2ccccc2Br)C(=O)O)=NO1` (stereo partly specified) are 4 nM and 170 nM.
